From PubChem BioAssay AID743471 (Broad Institute, 2014)
Calls of active or inactive are those of the source.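 Rule for the calls: active = fitted curve drops past -35% activity change at a concentration up to twice the top valid tested dose; inactive = the rest, including activity in the opposite direction.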

tested on: not listed separately; test: HepG2 cell cytotoxicity, dose response, cytotoxicity control, luminescence, dry powder, set 12 (AID 743471); details: HepG2 viability, ATP luminescence (CellTiter-Glo), 72 h; at 0.8 µM (top of the series)

Which activity change, negative = cytotoxicity does the source give for `CC[C@]1(O)CC2CN(CCc3c([nH]c4ccccc34)[C@@](C(=O)OC)(c3cc4c(cc3OC)N(C=O)[C@H]3[C@@](O)(C(=O)OC)[C@H](OC(C)=O)[C@]5(CC)C=CCN6CC[C@]43[C@@H]65)C2)C1` (stereo not given in full) here?
The activity change, negative = cytotoxicity was -12.1% (inactive).

For `CCN(CCO)CCCOc1ccc2c(Nc3cc(CC(=O)Nc4cccc(F)c4)[nH]n3)ncnc2c1`, which activity change, negative = cytotoxicity is on record?
The activity change, negative = cytotoxicity was 6.31% (inactive).

same assay, conditions: HepG2 viability, ATP luminescence (CellTiter-Glo), 72 h; at 1.35 µM (top of the series)

For `COc1cc([C@@H]2c3cc4c(cc3[C@@H](O[C@@H]3O[C@@H]5CO[C@@H](C)O[C@H]5[C@H](O)[C@H]3O)[C@H]3COC(=O)[C@H]23)OCO4)cc(OC)c1O`, which activity change, negative = cytotoxicity is on record?
Its activity change, negative = cytotoxicity is -5.5% (inactive).

same assay, conditions: HepG2 viability, ATP luminescence (CellTiter-Glo), 72 h; at 8 µM (top of the series)

For `COc1cccc(S(=O)(=O)N2CC[C@@H]3[C@@H](CO)Nc4ccc(-c5ccc(C#N)cc5)cc4[C@@H]32)c1`, which activity change, negative = cytotoxicity is on record?
The activity change, negative = cytotoxicity was 25.7% (inactive).

With `N#CC1=C(N)Oc2cc3c(cc2C1c1cccc(Br)c1)OCO3` (stereo not given) as the compound, how does the activity change, negative = cytotoxicity read?
Its activity change, negative = cytotoxicity is -4.83% (inactive).

same assay, conditions: HepG2 viability, ATP luminescence (CellTiter-Glo), 72 h; at 12 µM (top of the series)

Which activity change, negative = cytotoxicity does the source give for `O=C(Cc1ccc(-c2ccc(OCCN3CCOCC3)cc2)cn1)NCc1ccccc1` here?
Its activity change, negative = cytotoxicity is -10.2% (inactive).

With `COc1ccc(OC)c(-c2nnc3n2N=C(c2ccc(OC)c(OC)c2)CS3)c1` as the compound, how does the activity change, negative = cytotoxicity read?
Its activity change, negative = cytotoxicity is -16.5% (inactive).

Which activity change, negative = cytotoxicity does the source give for `COc1ccc(NC(=O)Nc2ccc3c(c2)C(=O)N([C@@H](C)CO)C[C@H](C)[C@H](CN(C)Cc2ccc4c(c2)OCO4)O3)cc1` here?
The activity change, negative = cytotoxicity was -13.2% (inactive).

With `C[C@@]1(C(=O)Nc2ccc(F)nc2)CCCN1c1nc(Nc2cc(C3CC3)[nH]n2)c2cccn2n1` as the compound, how does the activity change, negative = cytotoxicity read?
Its activity change, negative = cytotoxicity is -31.6% (inactive).

same assay, conditions: HepG2 viability, ATP luminescence (CellTiter-Glo), 72 h; at 26 µM (top of the series)

For `CCCCc1ccc2nc(NC(=O)OC)[nH]c2c1`, which activity change, negative = cytotoxicity is on record?
Its activity change, negative = cytotoxicity is -18.5% (inactive).

Which activity change, negative = cytotoxicity does the source give for `N#CC1=C(N)Oc2cc(N)ccc2C1c1cccc(Br)c1` (stereo not given) here?
The activity change, negative = cytotoxicity was -3.92% (inactive).

Which activity change, negative = cytotoxicity does the source give for `N#CC1=C(N)Oc2cc(OC(=O)c3ccccc3)ccc2C1c1cccc(Br)c1` (stereo not given) here?
Its activity change, negative = cytotoxicity is -8.31% (inactive).

With `CCC(C)(C)C(=O)O[C@H]1C[C@@H](C)C=C2C=C[C@H](C)[C@H](CC[C@@H]3C[C@@H](O)CC(=O)O3)[C@H]21` as the compound, how does the activity change, negative = cytotoxicity read?
The activity change, negative = cytotoxicity was 1.04% (inactive).

With `COc1ccccc1-c1nnc2n1N=C(c1ccc3c(c1)OCO3)CS2` as the compound, how does the activity change, negative = cytotoxicity read?
The activity change, negative = cytotoxicity was -11.4% (inactive).

Which activity change, negative = cytotoxicity does the source give for `COc1cc(Nc2ncc3c(n2)-c2ccc(Cl)cc2C(c2c(F)cccc2OC)=NC3)ccc1C(=O)O` here?
The activity change, negative = cytotoxicity was -12.9% (inactive).

For `O=C(Nc1c(Cl)cncc1Cl)c1ccc(OC(F)F)c(OCC2CC2)c1`, which activity change, negative = cytotoxicity is on record?
Its activity change, negative = cytotoxicity is 5.78% (inactive).

For `Cc1ccc(C2C(C#N)=C(N)Oc3cc(N)ccc32)cc1` (stereo not given), which activity change, negative = cytotoxicity is on record?
Its activity change, negative = cytotoxicity is 1.29% (inactive).

With `COc1ccccc1S(=O)(=O)N1CC[C@@H]2[C@@H](CO)Nc3ccc(-c4ccc(C#N)cc4)cc3[C@@H]21` as the compound, how does the activity change, negative = cytotoxicity read?
The activity change, negative = cytotoxicity was -11.4% (inactive).

Which activity change, negative = cytotoxicity does the source give for `Clc1ccccc1-c1nnc2n1N=C(c1ccc3c(c1)OCO3)CS2` here?
The activity change, negative = cytotoxicity was -25.1% (inactive).

With `COc1ccc(S(=O)(=O)N(C(C)=O)c2ccc(OC(C)=O)c3ccccc23)cc1[N+](=O)[O-]` as the compound, how does the activity change, negative = cytotoxicity read?
The activity change, negative = cytotoxicity was -15.5% (inactive).

With `CN1c2ccc(-c3ccc(C#N)cc3)cc2[C@H]2[C@H](CCN2S(=O)(=O)c2cccc(F)c2)[C@H]1CO` as the compound, how does the activity change, negative = cytotoxicity read?
The activity change, negative = cytotoxicity was -20.9% (inactive).

With `COc1ccc(C2C(C#N)=C(N)Oc3cc(N)ccc32)cc1` (stereo not given) as the compound, how does the activity change, negative = cytotoxicity read?
Its activity change, negative = cytotoxicity is -5.71% (inactive).

With `COc1ccc(S(=O)(=O)N2CC[C@@H]3[C@H](CO)Nc4ccc(-c5ccc(C#N)cc5)cc4[C@@H]32)cc1` as the compound, how does the activity change, negative = cytotoxicity read?
Its activity change, negative = cytotoxicity is -32.1% (inactive).

Which activity change, negative = cytotoxicity does the source give for `COc1ccc(CNc2nc(N3CCC[C@H]3CO)ncc2C(=O)NCc2ncccn2)cc1Cl` here?
The activity change, negative = cytotoxicity was -10.6% (inactive).

With `Cc1ccc(S(=O)(=O)N2CC[C@@H]3[C@@H](CO)Nc4ccc(-c5ccc(C#N)cc5)cc4[C@@H]32)cc1` as the compound, how does the activity change, negative = cytotoxicity read?
The activity change, negative = cytotoxicity was -7.83% (inactive).

Which activity change, negative = cytotoxicity does the source give for `Cc1ccccc1C1C(C#N)=C(N)Oc2cc(N)ccc21` (stereo not given) here?
Its activity change, negative = cytotoxicity is 0.564% (inactive).

For `C[C@]1(c2nc3c(C(N)=O)cccc3[nH]2)CCCN1`, which activity change, negative = cytotoxicity is on record?
Its activity change, negative = cytotoxicity is -5.99% (inactive).

With `N#Cc1ccc(-c2ccc3c(c2)[C@H]2[C@H](CCN2S(=O)(=O)c2ccccc2F)[C@@H](CO)N3)cc1` as the compound, how does the activity change, negative = cytotoxicity read?
The activity change, negative = cytotoxicity was -18.6% (inactive).

Which activity change, negative = cytotoxicity does the source give for `N#CC1=C(N)Oc2cc(N)ccc2C12C(=O)Nc1ccc(Br)cc12` (stereo not given) here?
Its activity change, negative = cytotoxicity is -10.7% (inactive).

For `CN1c2ccc(-c3ccc(C#N)cc3)cc2[C@H]2[C@H](CCN2S(=O)(=O)c2ccc(F)cc2)[C@H]1CO`, which activity change, negative = cytotoxicity is on record?
Its activity change, negative = cytotoxicity is 20.9% (inactive).

With `COc1cc(C2C(C#N)=C(N)Oc3cc(N(C)C)ccc32)cc2c1OCO2` (stereo not given) as the compound, how does the activity change, negative = cytotoxicity read?
The activity change, negative = cytotoxicity was -11.7% (inactive).

With `COc1ccc(C2CNC(=O)C2)cc1OC1CCCC1` (stereo not given) as the compound, how does the activity change, negative = cytotoxicity read?
The activity change, negative = cytotoxicity was 15.7% (inactive).

With `COc1cccc(C2C(C#N)=C(N)Oc3cc(N)ccc32)c1` (stereo not given) as the compound, how does the activity change, negative = cytotoxicity read?
The activity change, negative = cytotoxicity was -11.2% (inactive).

For `COc1ccc(OC)c(-c2nnc3n2N=C(c2ccc(OC)c(OC)c2)CS3)c1`, which activity change, negative = cytotoxicity is on record?
The activity change, negative = cytotoxicity was -21.2% (inactive).

Which activity change, negative = cytotoxicity does the source give for `CN(C)c1ccc2c(c1)OC(N)=C(C#N)C2c1cccc(F)c1` (stereo not given) here?
The activity change, negative = cytotoxicity was -8.25% (inactive).

With `CN(C(=O)CCCOc1ccc2[nH]c(=O)ccc2c1)C1CCCCC1` as the compound, how does the activity change, negative = cytotoxicity read?
Its activity change, negative = cytotoxicity is -11.4% (inactive).

With `N#CC1=C(N)Oc2cc(N)ccc2C1c1cccc(F)c1` (stereo not given) as the compound, how does the activity change, negative = cytotoxicity read?
Its activity change, negative = cytotoxicity is -15.7% (inactive).

Which activity change, negative = cytotoxicity does the source give for `COc1ccc(S(=O)(=O)N2CC[C@@H]3[C@@H](CO)N(C)c4ccc(-c5ccc(F)cc5)cc4[C@@H]32)cc1` here?
The activity change, negative = cytotoxicity was -2.59% (inactive).

With `COc1ccccc1C1C(C#N)=C(N)Oc2cc(N)ccc21` (stereo not given) as the compound, how does the activity change, negative = cytotoxicity read?
The activity change, negative = cytotoxicity was 4.04% (inactive).

For `COC(=O)c1ccc(C2C(C#N)=C(N)Oc3cc(N)ccc32)cc1` (stereo not given), which activity change, negative = cytotoxicity is on record?
Its activity change, negative = cytotoxicity is 6.98% (inactive).

Which activity change, negative = cytotoxicity does the source give for `Cc1ccc([N+](=O)[O-])cc1S(=O)(=O)N(C)C` here?
The activity change, negative = cytotoxicity was -2.85% (inactive).

With `Cc1c([C@H](C(Cl)Cl)[C@H](O)[C@H]2C[C@H](C)C(=O)O2)ccc2c1C(=O)[C@H]1[C@H]2C[C@@H](Br)[C@@]23O[C@@H](CO[C@H]2O)C[C@]13C` as the compound, how does the activity change, negative = cytotoxicity read?
Its activity change, negative = cytotoxicity is -19.2% (inactive).

With `Cc1cccc(C2C(C#N)=C(N)Oc3cc(N)ccc32)c1` (stereo not given) as the compound, how does the activity change, negative = cytotoxicity read?
The activity change, negative = cytotoxicity was -14.7% (inactive).

Which activity change, negative = cytotoxicity does the source give for `N#CC1=C(N)Oc2cc(N)ccc2C1c1ccccc1Cl` (stereo not given) here?
Its activity change, negative = cytotoxicity is -2.14% (inactive).

For `N#CC1=C(N)Oc2cc(N)ccc2C1c1ccc(Cl)cc1` (stereo not given), which activity change, negative = cytotoxicity is on record?
The activity change, negative = cytotoxicity was -15.5% (inactive).

With `N#CC1=C(N)Oc2cc(N)ccc2C1c1ccc2ccccc2c1` (stereo not given) as the compound, how does the activity change, negative = cytotoxicity read?
Its activity change, negative = cytotoxicity is -25.4% (inactive).

same assay, conditions: HepG2 viability, ATP luminescence (CellTiter-Glo), 72 h; at 50 µM (top of the series)

For `O=P1(NCCCl)OCCCN1CCCl` (stereo not given), which activity change, negative = cytotoxicity is on record?
Its activity change, negative = cytotoxicity is 7.58% (inactive).

same assay, conditions: HepG2 viability, ATP luminescence (CellTiter-Glo), 72 h; at 110 µM (top of the series)

For `O=C(c1cc(Cc2n[nH]c(=O)c3ccccc23)ccc1F)N1CCN(C(=O)C2CC2)CC1`, which activity change, negative = cytotoxicity is on record?
The activity change, negative = cytotoxicity was -17.3% (inactive).

tested on: HepG2 viability, ATP luminescence (CellTiter-Glo), 72 h; test: as above; details: not given

For `N#CC1=C(N)Oc2cc(O)ccc2C1c1cccc(Br)c1` (stereo not given), which AC35 is on record?
Its AC35 is 13.7 µM.

With `COc1ccc(-c2ccc3c(c2)[C@H]2[C@H](CCN2S(=O)(=O)c2ccc(OC)cc2)[C@@H](CO)N3C)cc1` as the compound, how does the AC35 read?
Its AC35 is 21.4 µM.

Which AC35 does the source give for `N#Cc1ccc(-c2ccc3c(c2)[C@H]2[C@H](CCN2S(=O)(=O)c2cccc(F)c2)[C@@H](CO)N3)cc1` here?
The AC35 was 24.5 µM.

For `C=C([C@@H](O)[C@@H](C)O)[C@@H](OC)[C@]1(C)Cc2cc3cc(O[C@H]4CC(OC5CC(O)C(O)C(C)O5)C(O)C(C)O4)cc(O)c3c(O)c2C(=O)[C@H]1OC1CC(OC2CC(OC3CC(C)(O)C(O)C(C)O3)C(O)C(C)O2)C(O)C(C)O1` (stereo not given in full), which AC35 is on record?
Its AC35 is 0.116 µM.

With `CN1CCN(CCOc2cc(OC3CCOCC3)c3c(Nc4c(Cl)ccc5c4OCO5)ncnc3c2)CC1` as the compound, how does the AC35 read?
Its AC35 is 25.4 µM.

For `COc1ccc(C2=Nn3c(nnc3-c3ccccc3)SC2)cc1OC`, which AC35 is on record?
Its AC35 is 20.2 µM.

Which AC35 does the source give for `Cc1nc(Nc2ncc(C(=O)Nc3c(C)cccc3Cl)s2)cc(N2CCN(CCO)CC2)n1` here?
The AC35 was 12.5 µM.
